In PubChem BioAssay (NCI):
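Cultured in 96-well plates, cells were exposed to test compound for 48 hours across five concentrations. Here, GI50 denotes the concentration required for 50% inhibition of growth. TGI: total growth inhibition.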

Columns and labels:
Assay in all cases: growth of human tumour cells (NCI), 48 h; in the data active = GI50 below about 0.43 µM; inactive = the rest
786-0 renal = system: 786-0 renal
A498 renal = system: A498 renal
A549 NSCLC = system: A549 NSCLC
ACHN renal = system: ACHN renal
BT-549 breast = system: BT-549 breast
CAKI-1 renal = system: CAKI-1 renal
CCRF-CEM leukemia = system: CCRF-CEM leukemia
COLO 205 colon = system: COLO 205 colon
DU-145 prostate = system: DU-145 prostate
EKVX NSCLC = system: EKVX NSCLC
HCC-2998 colon = system: HCC-2998 colon
HCT-116 colon = system: HCT-116 colon
HCT-15 colon = system: HCT-15 colon
HL-60(TB) leukemia = system: HL-60(TB) leukemia
HOP-62 NSCLC = system: HOP-62 NSCLC
HOP-92 NSCLC = system: HOP-92 NSCLC
HS 578T breast = system: HS 578T breast
HT29 colon = system: HT29 colon
IGROV1 ovarian = system: IGROV1 ovarian
K-562 leukemia = system: K-562 leukemia
KM12 colon = system: KM12 colon
LOX IMVI melanoma = system: LOX IMVI melanoma
M14 melanoma = system: M14 melanoma
MALME-3M melanoma = system: MALME-3M melanoma
MCF7 breast = system: MCF7 breast
MDA-MB-231 breast = system: MDA-MB-231 breast
MDA-MB-435 = system: MDA-MB-435
MDA-MB-468 breast = system: MDA-MB-468 breast
MOLT-4 leukemia = system: MOLT-4 leukemia
NCI-H226 lung = system: NCI-H226 lung
NCI-H23 lung = system: NCI-H23 lung
NCI-H460 lung = system: NCI-H460 lung
NCI-H522 lung = system: NCI-H522 lung
NCI/ADR-RES ovarian = system: NCI/ADR-RES ovarian
OVCAR-3 ovarian = system: OVCAR-3 ovarian
OVCAR-4 ovarian = system: OVCAR-4 ovarian
OVCAR-5 ovarian = system: OVCAR-5 ovarian
OVCAR-8 ovarian = system: OVCAR-8 ovarian
PC-3 prostate = system: PC-3 prostate
RPMI-8226 leukemia = system: RPMI-8226 leukemia
SF-268 CNS = system: SF-268 CNS
SF-295 CNS = system: SF-295 CNS
SF-539 CNS = system: SF-539 CNS
SK-MEL-2 melanoma = system: SK-MEL-2 melanoma
SK-MEL-28 melanoma = system: SK-MEL-28 melanoma
SK-MEL-5 melanoma = system: SK-MEL-5 melanoma
SK-OV-3 ovarian = system: SK-OV-3 ovarian
SN12C renal = system: SN12C renal
SNB-19 CNS = system: SNB-19 CNS
SNB-75 CNS = system: SNB-75 CNS
SR leukemia = system: SR leukemia
SW-620 colon = system: SW-620 colon
T-47D breast = system: T-47D breast
TK-10 renal = system: TK-10 renal
U251 CNS = system: U251 CNS
UACC-257 melanoma = system: UACC-257 melanoma
UACC-62 melanoma = system: UACC-62 melanoma
UO-31 renal = system: UO-31 renal

C#CCCCN(CCNc1ccnc2cc(Cl)ccc12)C(=O)CCC(=O)O[C@@H]1O[C@@H]2OC3(C)CC[C@H]4[C@H](C)CC[C@@H]([C@H]1C)[C@@]24OO3
1820 nM: TGI (HL-60(TB) leukemia)
6.74 µM: TGI (HOP-92 NSCLC)
active: GI50 (HCT-15 colon) 337 nM | GI50 (HL-60(TB) leukemia) 364 nM | GI50 (PC-3 prostate) 194 nM | GI50 (RPMI-8226 leukemia) 399 nM | GI50 (T-47D breast) 402 nM
8.98 µM: TGI (SK-MEL-5 melanoma)
5.49 µM: TGI (MDA-MB-468 breast)
inactive: GI50 (786-0 renal) 5.67 µM | GI50 (A498 renal) > 11.5 µM | GI50 (A549 NSCLC) 7.37 µM | GI50 (ACHN renal) 2180 nM | GI50 (BT-549 breast) 1270 nM | GI50 (CAKI-1 renal) 8.21 µM | GI50 (CCRF-CEM leukemia) 697 nM | GI50 (COLO 205 colon) 1390 nM | GI50 (DU-145 prostate) 8.95 µM | GI50 (EKVX NSCLC) 1030 nM | GI50 (HCC-2998 colon) 2720 nM | GI50 (HCT-116 colon) 554 nM | GI50 (HOP-62 NSCLC) > 11.5 µM | GI50 (HOP-92 NSCLC) 581 nM | GI50 (HS 578T breast) 1830 nM | GI50 (HT29 colon) 701 nM | GI50 (IGROV1 ovarian) 3.01 µM | GI50 (K-562 leukemia) 448 nM | GI50 (KM12 colon) 572 nM | GI50 (LOX IMVI melanoma) 676 nM | GI50 (M14 melanoma) 4.86 µM | GI50 (MALME-3M melanoma) 2560 nM | GI50 (MCF7 breast) 805 nM | GI50 (MDA-MB-231 breast) 9.5 µM | GI50 (MDA-MB-435) 772 nM | GI50 (MDA-MB-468 breast) 1740 nM | GI50 (MOLT-4 leukemia) 527 nM | GI50 (NCI-H226 lung) 3.76 µM | GI50 (NCI-H23 lung) 1080 nM | GI50 (NCI-H460 lung) 5.09 µM | GI50 (NCI-H522 lung) 788 nM | GI50 (NCI/ADR-RES ovarian) 1830 nM | GI50 (OVCAR-3 ovarian) 876 nM | GI50 (OVCAR-4 ovarian) 1390 nM | GI50 (OVCAR-5 ovarian) 974 nM | GI50 (OVCAR-8 ovarian) 1040 nM | GI50 (SF-268 CNS) 7.45 µM | GI50 (SF-295 CNS) 1870 nM | GI50 (SF-539 CNS) 3.99 µM | GI50 (SK-MEL-2 melanoma) 4.93 µM | GI50 (SK-MEL-28 melanoma) 2640 nM | GI50 (SK-MEL-5 melanoma) 1180 nM | GI50 (SK-OV-3 ovarian) > 11.5 µM | GI50 (SN12C renal) 3.06 µM | GI50 (SNB-19 CNS) 7.16 µM | GI50 (SNB-75 CNS) > 11.5 µM | GI50 (SR leukemia) 475 nM | GI50 (SW-620 colon) 643 nM | GI50 (TK-10 renal) 8.12 µM | GI50 (U251 CNS) 2730 nM | GI50 (UACC-257 melanoma) 2300 nM | GI50 (UACC-62 melanoma) 878 nM | GI50 (UO-31 renal) 1190 nM
> 11.5 µM: TGI (786-0 renal) | TGI (A498 renal) | TGI (A549 NSCLC) | TGI (ACHN renal) | TGI (BT-549 breast) | TGI (CAKI-1 renal) | TGI (CCRF-CEM leukemia) | TGI (COLO 205 colon) | TGI (DU-145 prostate) | TGI (EKVX NSCLC) | TGI (HCC-2998 colon) | TGI (HCT-116 colon) | TGI (HCT-15 colon) | TGI (HOP-62 NSCLC) | TGI (HS 578T breast) | TGI (HT29 colon) | TGI (IGROV1 ovarian) | TGI (K-562 leukemia) | TGI (KM12 colon) | TGI (M14 melanoma) | TGI (MALME-3M melanoma) | TGI (MCF7 breast) | TGI (MDA-MB-231 breast) | TGI (MDA-MB-435) | TGI (NCI-H226 lung) | TGI (NCI-H23 lung) | TGI (NCI-H460 lung) | TGI (NCI-H522 lung) | TGI (NCI/ADR-RES ovarian) | TGI (OVCAR-3 ovarian) | TGI (OVCAR-4 ovarian) | TGI (OVCAR-5 ovarian) | TGI (OVCAR-8 ovarian) | TGI (PC-3 prostate) | TGI (RPMI-8226 leukemia) | TGI (SF-268 CNS) | TGI (SF-295 CNS) | TGI (SF-539 CNS) | TGI (SK-MEL-2 melanoma) | TGI (SK-MEL-28 melanoma) | TGI (SK-OV-3 ovarian) | TGI (SN12C renal) | TGI (SNB-19 CNS) | TGI (SNB-75 CNS) | TGI (SW-620 colon) | TGI (T-47D breast) | TGI (TK-10 renal) | TGI (U251 CNS) | TGI (UACC-257 melanoma) | TGI (UACC-62 melanoma) | TGI (UO-31 renal)
5.82 µM: TGI (MOLT-4 leukemia)
9.37 µM: TGI (SR leukemia)
2820 nM: TGI (LOX IMVI melanoma)
